According to patent US20230111310A1, “CARBOXYLIC ACID DERIVATIVE-SUBSTITUTED IMINO ARYL COMPOUND, PREPARATION METHOD THEREFOR, HERBICIDAL COMPOSITION AND USE THEREOF” (Qingdao Kingagroot Chemical Compound Co., Ltd., priority 2020, published 2023):

Columns and labels:
Experiment in all cases: Weeding effect in post-emergence stage
Type in all cases: in vivo
Details in all cases: Dose 15 g/ha; level of fresh weight growth control rate
[1] = tested on: Abutilon theophrasti
Summary of the method: (§1)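 Pot-grown greenhouse plants sprayed at 2–3 leaf stage, 2 weeks after sowing, with compound in acetone/Tween 80 plus methyl oleate emulsifiable concentrate (1.5 liter/ha) at 500–7.5 g/ha. Growth control rated 3 weeks after treatment; mean of three replicates.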

[2] = tested on: Alopecurus japonicus
Summary of the method: as §1

[3] = tested on: Digitaria sanguinalis
Summary of the method: as §1

[4] = tested on: Eleusine indica
Summary of the method: as §1

[5] = tested on: Setaria viridis
Summary of the method: as §1

[6] = tested on: Echinochloa crusgalli
Summary of the method: as §1

Row | SMILES | Weeding effect in post-emergence stage, Abutilon theophrasti [1] | Weeding effect in post-emergence stage, Alopecurus japonicus [2] | Weeding effect in post-emergence stage, Digitaria sanguinalis [3] | Weeding effect in post-emergence stage, Eleusine indica [4] | Weeding effect in post-emergence stage, Setaria viridis [5] | Weeding effect in post-emergence stage, Echinochloa crusgalli [6]
1 | COC[C@@H](O/N=C/c1cc(-n2c(=O)n(C)c(=S)n(C)c2=O)c(F)cc1Cl)C(=O)OC [80(R)] | 5 (Level 5: growth control rate is above 85%) | 5 (Level 5: growth control rate is above 85%) | 5 (Level 5: growth control rate is above 85%) | 5 (Level 5: growth control rate is above 85%) | 5 (Level 5: growth control rate is above 85%) | 5 (Level 5: growth control rate is above 85%)
2 | COC(=O)[C@@H](C)O/N=C/c1cc(-n2c(=O)n(C)c(=S)n(C)c2=O)c(F)cc1Br [83(R)] | 5 (Level 5: growth control rate is above 85%) | 4 (Level 4: growth control rate is greater than or equal to 60% and less than 85%) | 4 (Level 4: growth control rate is greater than or equal to 60% and less than 85%) | 5 (Level 5: growth control rate is above 85%) | 5 (Level 5: growth control rate is above 85%) | 5 (Level 5: growth control rate is above 85%)
3 | CCOC(=O)[C@@H](C)O/N=C/c1cc(-n2c(=O)n(C)c(=S)n(C)c2=O)c(F)cc1Br [84(R)] | 5 (Level 5: growth control rate is above 85%) | 4 (Level 4: growth control rate is greater than or equal to 60% and less than 85%) | 4 (Level 4: growth control rate is greater than or equal to 60% and less than 85%) | 5 (Level 5: growth control rate is above 85%) | 5 (Level 5: growth control rate is above 85%) | 5 (Level 5: growth control rate is above 85%)
4 | COC(=O)[C@@H](C)O/N=C/c1cc(-n2c(=O)n(C)c(=S)n(C)c2=O)c(F)cc1C(F)(F)F [85(R)] | 5 (Level 5: growth control rate is above 85%) | 4 (Level 4: growth control rate is greater than or equal to 60% and less than 85%) | 5 (Level 5: growth control rate is above 85%) | 5 (Level 5: growth control rate is above 85%) | 5 (Level 5: growth control rate is above 85%) | 5 (Level 5: growth control rate is above 85%)
5 | CCOC(=O)[C@@H](C)O/N=C/c1cc(-n2c(=O)n(C)c(=S)n(C)c2=O)c(F)cc1C(F)(F)F [86(R)] | 5 (Level 5: growth control rate is above 85%) | 3 (Level 3: growth control rate is greater than or equal to 40% and less than 60%) | 3 (Level 3: growth control rate is greater than or equal to 40% and less than 60%) | 5 (Level 5: growth control rate is above 85%) | 4 (Level 4: growth control rate is greater than or equal to 60% and less than 85%) | 4 (Level 4: growth control rate is greater than or equal to 60% and less than 85%)
6 | COC(=O)[C@@H](C)O/N=C/c1cc(-n2c(=O)n(C)c(=S)n(C)c2=O)c(F)cc1C#N [87(R)] | 5 (Level 5: growth control rate is above 85%) | 5 (Level 5: growth control rate is above 85%) | 5 (Level 5: growth control rate is above 85%) | 5 (Level 5: growth control rate is above 85%) | 5 (Level 5: growth control rate is above 85%) | 5 (Level 5: growth control rate is above 85%)
7 | CCOC(=O)[C@@H](C)O/N=C/c1cc(-n2c(=O)n(C)c(=S)n(C)c2=O)c(F)cc1C#N [88(R)] | 5 (Level 5: growth control rate is above 85%) | 5 (Level 5: growth control rate is above 85%) | 5 (Level 5: growth control rate is above 85%) | 5 (Level 5: growth control rate is above 85%) | 5 (Level 5: growth control rate is above 85%) | 5 (Level 5: growth control rate is above 85%)
8 | COC(=O)[C@@H](C)O/N=C/c1cc(-n2c(=O)n(C)c(=S)n(C)c2=S)c(F)cc1Cl [124(R)] | 5 (Level 5: growth control rate is above 85%) | 5 (Level 5: growth control rate is above 85%) | 5 (Level 5: growth control rate is above 85%) | 5 (Level 5: growth control rate is above 85%) | 5 (Level 5: growth control rate is above 85%) | 5 (Level 5: growth control rate is above 85%)
9 | CCOC(=O)[C@@H](C)O/N=C/c1cc(-n2c(=O)n(C)c(=S)n(C)c2=S)c(F)cc1Br [161(R)] | 5 (Level 5: growth control rate is above 85%) | 4 (Level 4: growth control rate is greater than or equal to 60% and less than 85%) | 4 (Level 4: growth control rate is greater than or equal to 60% and less than 85%) | 5 (Level 5: growth control rate is above 85%) | 5 (Level 5: growth control rate is above 85%) | 5 (Level 5: growth control rate is above 85%)
10 | COC(=O)[C@@H](C)O/N=C/c1cc(-n2c(=O)n(C)c(=O)n(C)c2=O)c(F)cc1Cl [164(R)] | 5 (Level 5: growth control rate is above 85%) | 5 (Level 5: growth control rate is above 85%) | 5 (Level 5: growth control rate is above 85%) | 5 (Level 5: growth control rate is above 85%) | 5 (Level 5: growth control rate is above 85%) | 5 (Level 5: growth control rate is above 85%)
11 | CCSC(=O)[C@@H](C)O/N=C/c1cc(-n2c(=O)n(C)c(=S)n(C)c2=O)c(F)cc1Cl [168(R)] | 5 (Level 5: growth control rate is above 85%) | 5 (Level 5: growth control rate is above 85%) | 5 (Level 5: growth control rate is above 85%) | 5 (Level 5: growth control rate is above 85%) | 5 (Level 5: growth control rate is above 85%) | 5 (Level 5: growth control rate is above 85%)
12 | COC(=O)CCNC(=O)[C@@H](C)O/N=C/c1cc(-n2c(=O)n(C)c(=S)n(C)c2=O)c(F)cc1Cl [183(R)] | 5 (Level 5: growth control rate is above 85%) | 5 (Level 5: growth control rate is above 85%) | 5 (Level 5: growth control rate is above 85%) | 5 (Level 5: growth control rate is above 85%) | 5 (Level 5: growth control rate is above 85%) | 5 (Level 5: growth control rate is above 85%)
13 | C[C@@H](O/N=C/c1cc(-n2c(=O)cc(C(F)(F)F)n(C)c2=O)c(F)cc1Cl)C(=O)O [193(R)] | 5 (Level 5: growth control rate is above 85%) | 5 (Level 5: growth control rate is above 85%) | 5 (Level 5: growth control rate is above 85%) | 5 (Level 5: growth control rate is above 85%) | 5 (Level 5: growth control rate is above 85%) | 5 (Level 5: growth control rate is above 85%)
14 | CCCCOC(=O)[C@@H](C)O/N=C/c1cc(-n2c(=O)cc(C(F)(F)F)n(C)c2=O)c(F)cc1Cl [200(R)] | 5 (Level 5: growth control rate is above 85%) | 5 (Level 5: growth control rate is above 85%) | 5 (Level 5: growth control rate is above 85%) | 5 (Level 5: growth control rate is above 85%) | 5 (Level 5: growth control rate is above 85%) | 5 (Level 5: growth control rate is above 85%)
15 | CC(C)COC(=O)[C@@H](C)O/N=C/c1cc(-n2c(=O)cc(C(F)(F)F)n(C)c2=O)c(F)cc1Cl [201(R)] | 5 (Level 5: growth control rate is above 85%) | 5 (Level 5: growth control rate is above 85%) | 5 (Level 5: growth control rate is above 85%) | 5 (Level 5: growth control rate is above 85%) | 5 (Level 5: growth control rate is above 85%) | 5 (Level 5: growth control rate is above 85%)
